The source of these data is ChEMBL document CHEMBL3864149, “Design, synthesis and structure-activity relationships of novel phenylalanine-based amino acids as kainate receptors ligands” (Bioorg Med Chem Lett, 2016).

Assay [1] can be described thus: Displacement of [3H]-kainate from kainate receptor in rat brain membranes after 60 mins. The assay is classed as cell membranes, Membrane. (In a radioligand displacement assay an active substance lowers the binding of a labelled ligand.)
Assay [2] has as its target Glutamate receptor ionotropic, kainate 3 (Rattus norvegicus, UniProt P42264). As to the kind of experiment: Displacement of [3H]-kainate from rat recombinant GluK3 receptor expressed in baculovirus infected insect Sf9 cell membranes after 60 mins.
Assay [3] has as its target Glutamate receptor ionotropic, kainate 1 (Rattus norvegicus, UniProt P22756). Kind of assay: Displacement of [3H]-NF608 from rat recombinant GluK1 receptor expressed in baculovirus infected insect Sf9 cell membranes after 60 mins.
A short description of assay [4]: Displacement of [3H]-AMPA from AMPA receptor in rat brain membranes after 30 mins. It is filed as cell membranes, Membrane.
For another assay, the species on record is Rattus norvegicus. Kind of assay: Selectivity ratio of Ki for rat recombinant GluK3 receptor to Ki for rat recombinant GluK1 receptor.
Assay [5] deals with T1, Glutamate receptor ionotropic, kainate 5 (Homo sapiens, UniProt Q16478).
T1 sequence (Q16478 whole entry): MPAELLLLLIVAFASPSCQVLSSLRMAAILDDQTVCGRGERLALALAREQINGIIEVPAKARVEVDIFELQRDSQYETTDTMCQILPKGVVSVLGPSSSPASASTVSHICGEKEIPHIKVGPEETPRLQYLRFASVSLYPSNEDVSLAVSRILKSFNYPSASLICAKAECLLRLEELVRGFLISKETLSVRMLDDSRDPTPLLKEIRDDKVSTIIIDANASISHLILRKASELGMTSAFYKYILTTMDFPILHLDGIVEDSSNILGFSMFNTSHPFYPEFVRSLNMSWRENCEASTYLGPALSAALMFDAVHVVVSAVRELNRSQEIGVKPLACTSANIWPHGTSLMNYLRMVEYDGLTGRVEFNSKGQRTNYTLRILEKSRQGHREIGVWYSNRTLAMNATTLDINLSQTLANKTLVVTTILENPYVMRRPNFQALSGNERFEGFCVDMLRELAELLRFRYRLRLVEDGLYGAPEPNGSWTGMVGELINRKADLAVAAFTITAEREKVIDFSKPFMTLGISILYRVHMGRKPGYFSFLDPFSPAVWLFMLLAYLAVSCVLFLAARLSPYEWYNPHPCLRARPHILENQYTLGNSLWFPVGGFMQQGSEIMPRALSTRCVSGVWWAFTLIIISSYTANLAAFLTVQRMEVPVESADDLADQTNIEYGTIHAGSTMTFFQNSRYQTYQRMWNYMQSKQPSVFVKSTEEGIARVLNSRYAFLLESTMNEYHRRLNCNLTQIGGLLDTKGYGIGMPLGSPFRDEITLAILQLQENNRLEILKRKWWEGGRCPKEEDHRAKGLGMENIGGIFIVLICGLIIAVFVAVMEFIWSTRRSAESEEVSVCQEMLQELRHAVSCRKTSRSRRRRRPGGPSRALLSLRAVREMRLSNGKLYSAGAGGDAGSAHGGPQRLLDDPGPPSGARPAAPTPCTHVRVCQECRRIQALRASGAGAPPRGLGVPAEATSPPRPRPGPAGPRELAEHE
As to the kind of experiment: Displacement of [3H]-kainate from human recombinant GluK5 receptor expressed in HEK293 cell membranes after 60 mins.

Assay [6] addresses Glutamate receptor ionotropic, kainate 2 (Homo sapiens, UniProt Q13002). Kind of assay: Displacement of [3H]-kainate from human recombinant GluK2 receptor expressed in HEK293 cell membranes after 60 mins.
Assay [7] is described as follows: Displacement of [3H]-kainate from kainate receptor in rat brain membranes after 1 hr by liquid scintillation counting method. It is filed as cell membranes, Membrane.
The nature of assay [8]: Displacement of [3H]-AMPA from AMPA receptor in rat brain membranes after 1 hr by liquid scintillation counting method. The assay is classed as cell membranes, Membrane.

As a reminder, the pKi is −log10 of the Ki, conventionally taken in molar units. A lower pKi goes with a high Ki. The IC50 is the concentration needed to halve the response being measured.

Some results are limits rather than exact numbers.

Glutamate receptor ionotropic, kainate 3, sequence (P42264 whole entry): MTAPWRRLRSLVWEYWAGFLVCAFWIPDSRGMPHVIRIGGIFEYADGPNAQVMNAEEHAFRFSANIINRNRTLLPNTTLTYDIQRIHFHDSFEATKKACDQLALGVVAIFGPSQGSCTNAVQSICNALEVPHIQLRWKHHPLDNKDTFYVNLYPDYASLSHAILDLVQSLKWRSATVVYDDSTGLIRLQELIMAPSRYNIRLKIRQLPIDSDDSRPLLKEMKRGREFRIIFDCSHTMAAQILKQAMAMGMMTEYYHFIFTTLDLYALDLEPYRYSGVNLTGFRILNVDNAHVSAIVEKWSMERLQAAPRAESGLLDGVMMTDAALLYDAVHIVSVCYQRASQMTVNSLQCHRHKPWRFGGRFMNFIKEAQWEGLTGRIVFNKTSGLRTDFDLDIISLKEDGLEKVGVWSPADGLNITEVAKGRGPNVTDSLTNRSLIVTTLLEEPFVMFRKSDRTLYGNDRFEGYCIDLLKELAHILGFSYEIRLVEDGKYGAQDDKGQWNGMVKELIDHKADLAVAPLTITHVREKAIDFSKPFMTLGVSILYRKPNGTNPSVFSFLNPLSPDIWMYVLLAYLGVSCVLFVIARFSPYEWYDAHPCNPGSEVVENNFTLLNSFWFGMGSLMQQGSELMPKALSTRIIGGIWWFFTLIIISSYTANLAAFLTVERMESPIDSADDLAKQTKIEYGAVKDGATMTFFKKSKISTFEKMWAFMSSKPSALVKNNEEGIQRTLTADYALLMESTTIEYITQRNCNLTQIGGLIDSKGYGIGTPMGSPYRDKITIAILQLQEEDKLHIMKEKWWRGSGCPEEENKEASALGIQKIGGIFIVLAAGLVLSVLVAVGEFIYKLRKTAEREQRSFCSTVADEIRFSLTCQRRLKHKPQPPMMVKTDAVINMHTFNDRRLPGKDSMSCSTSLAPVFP
Glutamate receptor ionotropic, kainate 1, sequence (P22756 whole entry): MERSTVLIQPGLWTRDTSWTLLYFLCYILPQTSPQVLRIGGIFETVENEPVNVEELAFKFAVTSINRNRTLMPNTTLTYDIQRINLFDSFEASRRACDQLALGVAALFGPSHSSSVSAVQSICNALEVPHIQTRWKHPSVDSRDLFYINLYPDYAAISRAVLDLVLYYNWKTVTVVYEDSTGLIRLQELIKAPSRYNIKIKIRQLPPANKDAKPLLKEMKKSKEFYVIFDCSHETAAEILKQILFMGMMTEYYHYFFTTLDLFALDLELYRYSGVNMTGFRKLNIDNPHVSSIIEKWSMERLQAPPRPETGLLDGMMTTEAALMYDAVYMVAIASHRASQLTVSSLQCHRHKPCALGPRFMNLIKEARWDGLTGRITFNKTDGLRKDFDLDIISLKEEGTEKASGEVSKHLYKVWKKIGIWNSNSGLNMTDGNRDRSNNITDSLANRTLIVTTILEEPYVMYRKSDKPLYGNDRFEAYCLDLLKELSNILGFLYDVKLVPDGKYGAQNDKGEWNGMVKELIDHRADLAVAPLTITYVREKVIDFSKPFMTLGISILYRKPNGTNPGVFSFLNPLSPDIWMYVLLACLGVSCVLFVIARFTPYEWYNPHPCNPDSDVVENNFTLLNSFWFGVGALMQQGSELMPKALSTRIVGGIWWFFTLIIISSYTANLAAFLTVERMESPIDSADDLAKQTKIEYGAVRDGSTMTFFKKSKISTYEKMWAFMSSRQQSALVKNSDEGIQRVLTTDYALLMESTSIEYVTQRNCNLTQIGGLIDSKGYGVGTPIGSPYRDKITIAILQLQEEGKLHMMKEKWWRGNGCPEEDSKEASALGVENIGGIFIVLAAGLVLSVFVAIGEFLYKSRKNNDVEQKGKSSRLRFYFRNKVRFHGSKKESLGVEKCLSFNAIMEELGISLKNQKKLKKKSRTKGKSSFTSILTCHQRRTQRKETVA
Glutamate receptor ionotropic, kainate 2, sequence (Q13002 whole entry): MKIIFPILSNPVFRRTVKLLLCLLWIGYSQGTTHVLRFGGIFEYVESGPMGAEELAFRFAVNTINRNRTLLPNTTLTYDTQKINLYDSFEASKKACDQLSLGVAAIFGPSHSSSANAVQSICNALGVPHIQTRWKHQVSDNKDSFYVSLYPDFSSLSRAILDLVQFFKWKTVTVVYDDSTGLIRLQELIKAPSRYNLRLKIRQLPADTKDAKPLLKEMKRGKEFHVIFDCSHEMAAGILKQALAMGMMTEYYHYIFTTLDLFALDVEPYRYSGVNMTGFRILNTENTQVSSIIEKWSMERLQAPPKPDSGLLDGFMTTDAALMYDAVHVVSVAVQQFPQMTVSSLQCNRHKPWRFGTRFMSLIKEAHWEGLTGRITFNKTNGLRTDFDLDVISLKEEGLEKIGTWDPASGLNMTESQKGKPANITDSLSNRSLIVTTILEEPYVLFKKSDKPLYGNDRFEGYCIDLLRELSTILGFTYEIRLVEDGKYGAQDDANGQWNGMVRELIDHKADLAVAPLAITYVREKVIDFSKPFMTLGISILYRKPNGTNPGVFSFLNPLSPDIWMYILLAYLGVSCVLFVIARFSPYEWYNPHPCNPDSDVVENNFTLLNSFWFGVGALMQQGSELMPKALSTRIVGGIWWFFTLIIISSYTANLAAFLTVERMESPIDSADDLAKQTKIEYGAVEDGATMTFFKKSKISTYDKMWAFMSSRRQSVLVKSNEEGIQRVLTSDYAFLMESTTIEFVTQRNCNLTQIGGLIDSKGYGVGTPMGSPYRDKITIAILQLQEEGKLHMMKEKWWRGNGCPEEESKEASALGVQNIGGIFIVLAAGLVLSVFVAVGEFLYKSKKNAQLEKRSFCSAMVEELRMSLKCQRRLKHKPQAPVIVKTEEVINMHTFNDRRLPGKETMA

As to `Nc1ccc(CC(N)C(=O)O)cc1-c1cccc(C(=O)O)c1` (racemic), the Ki in assay [1] is more than 100 µM; in assay [2] it was more than 100 µM; in assay [3] (read-out: Ki), 26 µM; in assay [4] it was more than 100 µM.

Consider `NC(Cc1ccc(Cl)c(-c2cccc(C(=O)O)c2)c1)C(=O)O` (racemic), for which the Ki in assay [1] is more than 100 µM; in [2] it was more than 100 µM; in assay [3] (read-out: Ki) it was 35 µM; in assay [4], more than 100 µM.

As for `Nc1c(-c2cccc(C(=O)O)c2)cc(CC(N)C(=O)O)cc1[N+](=O)[O-]` (racemic), the Ki in assay [1] is more than 100 µM; in assay [2] it was more than 100 µM; in assay [3] (read-out: Ki), 7.5 µM; in assay [3] (read-out: pKi (converted)) it was 7.08 µM; in [4], more than 100 µM.

As for `NC(Cc1cc(Cl)c(O)c(-c2cccc(C(=O)O)c2)c1)C(=O)O` (racemic), in the assay listed under Rattus norvegicus, the Ratio Ki was found to be 2. The Ki in assay [1] was more than 100 µM; in [2] it was 11 µM; in [3] (read-out: Ki), 5.5 µM; in assay [4], more than 100 µM.

For the molecule `Nc1c(Cl)cc(CC(N)C(=O)O)cc1-c1cccc(C(=O)O)c1` (racemic), in the assay filed under Rattus norvegicus, the Ratio Ki came out at 20. Besides, the Ki in assay [1] is more than 100 µM; in assay [2] it was more than 100 µM; in assay [3] (read-out: Ki), 4.9 µM; in [3] (read-out: pKi (converted)) it was 4.68 µM; in assay [4], 100 µM.

On to `NC(Cc1cc(Cl)cc(-c2cccc(C(=O)O)c2)c1)C(=O)O` (racemic), for which the Ki in assay [1] is more than 100 µM; in assay [2], 25 µM; in [3] (read-out: Ki) it was 5.7 µM; in assay [3] (read-out: pKi (converted)), 5.5 µM; in [4], 51 µM. This molecule came in with a pKi in assay [4] of 4.31.

Take `O=C(O)[C@@H]1C[C@H]2C[C@@H](CN3CC(F)(F)C[C@H]3C(=O)O)CC[C@H]2CN1`: the figures for the Ki in [5] and in assay [6] were 8.9 µM and 50 nM, respectively.

Take `NC(Cc1cc(Cl)c(Cl)c(-c2cccc(C(=O)O)c2)c1)C(=O)O` (centres undefined): the Ki in [2] is more than 100 µM.

For the molecule `CC(C)(C)c1onc(OCP(=O)(O)O)c1C[C@H](N)C(=O)O`, the IC50 is more than 100 µM in [7] and 16 µM in assay [8]. In addition, the Ki in assay [2] is more than 1000 µM.

Take `NC(Cc1cccc(-c2cccc(C(=O)O)c2)c1)C(=O)O` (centres undefined): the Ki in assay [2] is more than 100 µM.

As for `NC(Cc1ccc([N+](=O)[O-])c(-c2cccc(C(=O)O)c2)c1)C(=O)O` (racemic), the Ki in [1] was more than 100 µM; in assay [2], 23 µM; in [3] (read-out: Ki) it was 7.2 µM; in assay [4] it was 65 µM. The molecule also had a pKi in assay [4] of 4.19.

On to `NC(Cc1cc(-c2cccc(C(=O)O)c2)cc([N+](=O)[O-])c1)C(=O)O` (racemic), for which the Ki in assay [1] is more than 100 µM; in assay [2], more than 100 µM; in assay [3] (read-out: Ki) it was 32 µM; in [4], 38 µM. In [4], this molecule registered a pKi of 4.43.

Regarding `NC(Cc1cc(-c2cccc(C(=O)O)c2)c(Cl)c([N+](=O)[O-])c1)C(=O)O` (racemic), the Ki in assay [1] is 32 µM; in [2], more than 100 µM; in [3] (read-out: Ki), 6.1 µM; in assay [3] (read-out: pKi (converted)) it was 5.89 µM; in assay [4], 62 µM. Also, the pKi in assay [1] was 4.5; in [4] it was 4.21.
